Experimental data taken from patent publication US4202968A, “New tunicamine derivatives and their preparation” (Meiji Seika Kaisha, Ltd., priority 1977, dated 1980).

Assays:
Eimeria tenella = assay: Inhibitory activity against coccidiosis in chicks orally inoculated with Eimeria tenella oocysts; format: in vivo, chicks (domestic fowls) infected with Eimeria tenella; design: key to Presence of hemaferia: -: Not existing; ±: Something like hemaferia is likely to exist; +: A little hemaferia exists; ++: Distinct hemaferiae exist in places; +++: Distinct hemaferiae exist almost over the whole; ++++: The whole are hemaferiae
Description: Inhibitory activity of tunicamine derivative C against coccidiosis was tested in the following manner. Primary chicks newly-hatched out were raised with a standard assorted feed for chicks containing no tunicamine derivative C for the first 7 days and on and after the 8th day with the same feed as above but containing a 100 ppm or 200 ppm concentration of tunicamine derivative C. On the 8th day from the hatch the body weight of the chicks was taken and they were divided into test groups of five chicks per group so as to balance the weight distribution for respective groups. On the 9th day, each chick was orally inoculated with 5.0×10^4 matured oocysts of Eimeria tenella. Assessment was made by observation and determination of the presence of […] on the 4, 5, 6, 7 and 8 from day inoculation; percent of survivals on the 8th day and the extend of symptoms on the 8th day from the inoculation were then evaluated.

[1] = test system: genera Bacillus, Candida, Microbacterium; details: cited from earlier work
[2] = test system: Newcastle disease virus (NDV), influenza virus and tobacco-mosaic virus; details: cited from earlier work
[3] = 100 ppm in feed, 8th day from inoculation
[4] = 200 ppm in feed, 8th day from inoculation

Row | Compound | Relative increase in body weight (Eimeria tenella; 100 ppm in feed) | Presence of hemaferia (Eimeria tenella; 100 ppm in feed, 4th day from inoculation) | Presence of hemaferia (Eimeria tenella; 100 ppm in feed, 5th day from inoculation) | Presence of hemaferia (Eimeria tenella; 100 ppm in feed, 6th day from inoculation) | Presence of hemaferia (Eimeria tenella; 100 ppm in feed, 7th day from inoculation) | Percent of survivals (Eimeria tenella; [3]) | Presence of hemaferia (Eimeria tenella; [3]) | Relative increase in body weight (Eimeria tenella; 200 ppm in feed) | Presence of hemaferia (Eimeria tenella; 200 ppm in feed, 4th day from inoculation) | Presence of hemaferia (Eimeria tenella; 200 ppm in feed, 5th day from inoculation) | Presence of hemaferia (Eimeria tenella; 200 ppm in feed, 6th day from inoculation) | Presence of hemaferia (Eimeria tenella; 200 ppm in feed, 7th day from inoculation) | Percent of survivals (Eimeria tenella; [4]) | Presence of hemaferia (Eimeria tenella; [4]) | antibacterial activity [1] | antiviral activity [2]
1 | NC1C(O)OC(CC(O)C2OC(n3ccc(=O)[nH]c3=O)C(O)C2O)C(O)C1O (stereo not shown) [tunicamine derivative C] | 96% | - | - | ± | ± | 100% | + | 102% | - | - | - | - | 100% | - |  | 
2 | tunicamycin |  |  |  |  |  |  |  |  |  |  |  |  |  |  | high | high
